# Experimental data: patent US6602896B1, “p38MAPK inhibitor and uses thereof” (The Board of Trustees of the University of Arkansas, priority 1999, dated 2003)
# Experiments:
# LDL receptor expression [1] = assay: Northern blotting of LDL receptor mRNA in HepG2 cells; type: cell-based, human
# Method: 5×10^5 cells were plated on day 0. On day 2, cells were refed with fresh medium. On day. 4, cells were either left untreated (0) or treated for the indicated times with SB202190 (2.5 μM) in medium containing 0.5% FBS. Total RNA was isolated and subjected to Northern blotting to determine amounts of LDL receptor, squalene synthase (SS) genes, and actin mRNAs. Autoradiographs were quantitated densitometrically. LDL receptor mRNA levels were normalized to actin mRNA levels. In the bottom panel, results are expressed as the fold induction by SB 202190 as compared with uninduced cells (set at 1). Values obtained are the averages of three separate experiments, with the standard deviations shown.
# HepG2 cells were grown as described in FIG. 1. On day 4, medium was changed to either 10% LPDS alone or 10% LPDS supplemented with 25-hydroxycholesterol (2 μg/ml) and cholesterol (10 μg/ml), and after 2 hours, cells were treated with indicated concentrations of SB202190 for an additional 4 hours. Levels of LDL receptor and SS mRNAs were determined by Northern analysis and densitometry as described previously. RNA levels were normalized by comparison with levels of actin. Values obtained from cells cultured in the absence of sterols and SB202190 were set at 1. Values shown are the average of two different experiments.
# Total RNA was subjected to Northern blot analysis, and the filter was hybridized with a ^32P-labeled LDL receptor probe. Values shown are the averages of two different experiments. […] Values obtained from the control cells grown in the absence of SB202190 or PD98059 were arbitrarily set at 1.
# HepG2 cells were grown as described in FIG. 1. On day 4, cells cultured for 1 h in 0.5% FBS containing different amounts of cycloheximide (1 μg/ml, 2 μg/ml, and 5 μg/ml) were then incubated with SB202190 (2.5 μM) for an additional 4 h. LDL receptor and actin mRNA levels were analyzed by Northern blotting of total RNA. Values obtained from cells with no additions were arbitrarily set at 1. […] Results shown are representative of one experiment.
# In FIG. 8A, HepG2 cells were pretreated for 30 minutes with the indicated concentration of the above inhibitors and then treated with […] SB202190 for an additional 4 hours. Total RNA was subjected to Northern blotting for measurement of LDL receptor mRNA levels.
# Human hepatoma cell line HepG2 and its derivative HepG2-ΔRaf-1:ER cell line that stably expresses the ΔRaf-1:ER chimera were maintained as monolayer cultures in a humidified 5% CO2 atmosphere at 37° C. in Eagle's minimum essential medium (EMEM) (Bio Whittaker, Md.) supplemented with 10% fetal bovine serum (FBS) (Life Technologies Inc.), 2 mM L-glutamine, 20 units/ml penicillin and 20 μg/ml streptomycin sulphate.
# Total RNA was isolated using TRIzol, and Northern blotting was done essentially as described earlier (43, 44). Briefly, 20 μg total cellular RNA was fractionated on 1% formaldehyde agarose gel and transferred to Zeta Probe membrane by capillary blotting. RNA blots were hybridized with LDL receptor and squalene synthase specific single-stranded M13 probes labeled with [α-^32P ]dCTP. Hybridized filters were washed and exposed to Kodak X-ray film. The relative intensities of specific bands were determined densitometrically within the linear range of the film on a model 300A laser densitometer (Molecular Dyanamics, Calif.) with Image Quant software. LDL receptor mRNA was normalized to squalene synthase (SS) (included in this study) or to α-actin (data not shown) mRNA level, and data for each point were plotted as the percentage of LDL receptor mRNA as compared to controls. […]
# LDL receptor expression [2] = assay: Northern blotting of LDL receptor mRNA in HeLa cells; type: cell-based; details: SB202190 (2.5 μM) 4 h
# Method: PD98059 was added 30 min prior to addition of SB202190. After the indicated times, total RNA was isolated and subjected to Northern blotting. […] Total RNA was isolated using TRIzol, and Northern blotting was done essentially as described earlier (43, 44). Briefly, 20 μg total cellular RNA was fractionated on 1% formaldehyde agarose gel and transferred to Zeta Probe membrane by capillary blotting. RNA blots were hybridized with LDL receptor and squalene synthase specific single-stranded M13 probes labeled with [α-^32P ]dCTP. Hybridized filters were washed and exposed to Kodak X-ray film. The relative intensities of specific bands were determined densitometrically within the linear range of the film on a model 300A laser densitometer (Molecular […], Calif.) with Image Quant software. LDL receptor mRNA was normalized to squalene synthase (SS) (included in this study) or to α-actin (data not shown) mRNA level, and data for each point were plotted as the percentage of LDL receptor mRNA as compared to controls.
# p42/44^MAPK = details: even at higher concentrations (100 μM); cited from earlier work
structure (smiles),measurement,setting,value
"Oc1ccc(-c2nc(-c3ccc(F)cc3)c(-c3ccncc3)[nH]2)cc1 [SB202190, 4-(4-Fluorophenyl)-2-(4-hydroxyphenyl)-5-(4-pyridyl) 1H-imidazole]",LDL receptor expression in the presence of sterols,"LDL receptor expression [1]; HepG2, 10% LPDS with 25-hydroxycholesterol (2 μg/ml) and cholesterol (10 μg/ml), SB202190 4 hours",slight increase in the suppressed levels of LDL receptor
same,most effective concentration for LDL receptor induction,LDL receptor expression [1]; HepG2 cells,2.5 µM
same,time after which plateau of LDL receptor expression was reached,"LDL receptor expression [1]; HepG2 cells, SB202190 2.5 μM",8 h
same,time at which a significant increase in LDL receptor expression was apparent,"LDL receptor expression [1]; HepG2 cells, SB202190 2.5 μM",4 h
same,induction of LDL receptor expression,"LDL receptor expression [1]; HepG2 cells, SB202190 alone",6-8 fold
same,induction of LDL receptor expression (Northern blotting),"LDL receptor expression [1]; HepG2 cells, inhibitor alone, 0.5% FBS",induces LDL receptor expression in a time-dependent manner
same,LDL receptor expression in HeLa cells,LDL receptor expression [2],caused a increase in LDL receptor expression
same,effect on p42/44MAPK,p42/44^MAPK,without effect
